Results from US8163740B2, “6-substituted benzoxazines” (Hoffmann-La Roche Inc., priority 2008, dated 2012).

The molecules below were run against recombinant human 5-HT5A receptor (Homo sapiens, UniProt P47898) (assay: [3H]LSD radioligand binding assay). Conditions: not given.
Description: A [^3H]LSD radioligand binding assay was used to determine the affinity of the compounds for the recombinant human 5-HT5A receptor, in membranes from transiently (cDNA) expressed 5-HT5A receptors in Human Embryonic Kidney-EBNA (HEK-EBNA) cells. Assay buffer consisted of Tris (50 mM) buffer containing 1 mM EGTA, 10 mM MgCl2 (pH 7.4) and 10 μM pargyline. The binding assay was carried out in 96-well-plates in the presence of [^3H]LSD (approximately 1 nM), approximately 2 μg/well of membrane protein, and 0.5 mg of Ysi-poly-1-lysine SPA beads in a final volume of 200 μl of buffer. Non-specific binding was defined using methiothepin 2 μM. Compounds were tested at 10 concentrations. All assays were conducted in duplicate and repeated at least two times. Assay plates were incubated for 120 min at room temperature before centrifugation. Bound ligand was determined using a Packard Topcount scintillation counter. IC50 values were calculated using a non-linear curve fitting program and Ki values calculated using the Cheng-Prussoff equation.

recombinant human 5-HT5A receptor, sequence (P47898 whole entry): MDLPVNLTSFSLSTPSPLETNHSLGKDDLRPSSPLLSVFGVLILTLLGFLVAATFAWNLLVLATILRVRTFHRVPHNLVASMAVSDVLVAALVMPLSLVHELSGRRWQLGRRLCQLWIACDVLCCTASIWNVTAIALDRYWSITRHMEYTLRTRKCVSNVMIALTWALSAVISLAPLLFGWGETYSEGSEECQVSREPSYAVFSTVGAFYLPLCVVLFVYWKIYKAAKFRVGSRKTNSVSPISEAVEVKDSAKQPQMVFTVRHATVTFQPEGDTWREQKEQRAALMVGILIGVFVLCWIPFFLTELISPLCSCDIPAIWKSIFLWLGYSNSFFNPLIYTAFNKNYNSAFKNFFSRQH

| SMILES | Ki [nM] |
| --- | --- |
| CN1C2COCC1CC(CC(=O)Nc1ccc3c(c1)COC(NC1CCc4ccccc41)=N3)C2 [Example 157, endo-N-[2-((R)-indan-1-ylamino)-4H-benzo[d][1,3]oxazin-6-yl]-2-(9-methyl-3-oxa-9-aza-bicyclo[3.3.1]non-7-yl)-acetamide] | 2.98 |

Same assay, conditions: [3H]LSD (approximately 1 nM); membranes from HEK-EBNA cells transiently expressing 5-HT5A; Ki by Cheng-Prussoff equation; read-out: Ki

| SMILES | Ki [nM] |
| --- | --- |
| O=C(Nc1ccc2c(c1)COC(N[C@@H]1CCc3ccccc31)=N2)C1CC1 [Example 18, Cyclopropanecarboxylic acid [2-((R)-indan-1-ylamino)-4H-benzo[d][1,3]oxazin-6-yl]-amide] | 0.83 |
| CN1CCN(CC(=O)Nc2ccc3c(c2)COC(N[C@@H]2CCCc4ccccc42)=N3)CC1 [Example 38, 2-(4-Methyl-piperazin-1-yl)-N-{2-[(R)-(1,2,3,4-tetrahydro-naphthalen-1-yl)amino]-4H-benzo[d][1,3]oxazin-6-yl}-acetamide] | 3.16 |
| Nc1ccc2c(c1)COC(NC1CCCCCCC1)=N2 [Example 153, N^2-Cyclooctyl-4H-benzo[d][1,3]oxazine-2,6-diamine] | 11.9 |
| O=S(=O)(Nc1ccc2c(c1)COC(N[C@@H]1CCc3ccccc31)=N2)C1CC1 [Example 79, Cyclopropanesulfonic acid [2-((R)-indan-1-ylamino)-4H-benzo[d][1,3]oxazin-6-yl]-amide] | 1.81 |
| Nc1ccc2c(c1)COC(NCCOc1ccccc1)=N2 [Example 87, N^2-(2-Phenoxy-ethyl)-4H-benzo[d][1,3]oxazine-2,6-diamine] | 3.6 |
| Fc1ccc2c(c1)CCC2NC1=Nc2ccc(Nc3cccc(C(F)(F)F)n3)cc2CO1 (racemic) [Example 57, rac-N^2-(5-Fluoro-indan-1-yl)-N^6-(6-trifluoromethyl-pyridin-2-yl)-4H-benzo[d][1,3]oxazine-2,6-diamine] | 6.06 |
| c1cncc(CNc2ccc3c(c2)COC(N[C@@H]2CCc4ccccc42)=N3)c1 [Example 88, N^2—(R)-Indan-1-yl-N^6-pyridin-3-ylmethyl-4H-benzo[d][1,3]oxazine-2,6-diamine] | 1.68 |
| CC(C)NC(=O)Nc1ccc2c(c1)COC(Nc1cccc3c1OC(C)(C)C3)=N2 [Example 139, 1-[2-(2,2-Dimethyl-2,3-dihydro-benzofuran-7-ylamino)-4H-benzo[d][1,3]oxazin-6-yl]-isopropyl-urea] | 241 |
| c1ccc(CNc2ccc3c(c2)COC(Nc2cccc(C4CC4)c2)=N3)cc1 [Example 136, N^6-Benzyl-N^2-(3-cyclopropyl-phenyl)-4H-benzo[d][1,3]oxazine-2,6-diamine] | 61.3 |
| CC(C)N1CCC(NC(=O)Nc2ccc3c(c2)COC(Nc2cccc(C4CC4)c2)=N3)CC1 [Example 137, 1-[2-(3-Cyclopropyl-phenylamino)-4H-benzo[d][1,3]oxazin-6-yl]-3-(1-isopropyl-piperidin-4-yl)-urea] | 5.32 |
| CN1CCN(CC(=O)Nc2ccc3c(c2)COC(Nc2cccc(C4CC4)c2)=N3)CC1 [Example 126, N-[2-(3-Cyclopropyl-phenylamino)-4H-benzo[d][1,3]oxazin-6-yl]-2-(4-methyl-piperazin-1-yl)-acetamide] | 37.7 |
| O=S(=O)(Nc1ccc2c(c1)COC(N[C@@H]1CCc3ccccc31)=N2)N1CCCCC1 [Example 30, Piperidine-1-sulfonic acid [2-((R)-indan-1-ylamino)-4H-benzo[d][1,3]oxazin-6-yl]-amide] | 4.2 |
| O=C(CN1CCSCC1)Nc1ccc2c(c1)COC(N[C@@H]1CCc3ccccc31)=N2 [Example 65, N-[2-((R)-Indan-1-ylamino)-4H-benzo[d][1,3]oxazin-6-yl]-2-thiomorpholin-4-yl-acetamide] | 7.62 |
| Nc1ccc2c(c1)COC(NC1CCCCCC1)=N2 [Example 92, N^2-Cycloheptyl-4H-benzo[d][1,3]oxazine-2,6-diamine] | 16.7 |
| COc1ccccc1CNC1=Nc2ccc(NC(=O)CN3CCN(CCO)CC3)cc2CO1 [Example 28, 2-[4-(2-Hydroxy-ethyl)-piperazin-1-yl]-N-[2-(2-methoxy-benzylamino)-4H-benzo[d][1,3]oxazin-6-yl]-acetamide] | 10.2 |

Now from value to molecule:

| Ki [nM] | SMILES |
| --- | --- |
| 390 | COc1ccccc1CNC1=Nc2ccc([N+](=O)[O-])cc2CO1 [Example 1, (2-Methoxy-benzyl)-(6-nitro-4H-benzo[d][1,3]oxazin-2-yl)-amine] |
| 20.9 | COc1cccc2c1C(NC1=Nc3ccc(NS(=O)(=O)c4ccccc4)cc3CO1)CO2 (racemic) [Example 115, rac-N-[2-(4-Methoxy-2,3-dihydro-benzofuran-3-ylamino)-4H-benzo[d][1,3]oxazin-6-yl]-benzenesulfonamide] |
| 5.69 | COc1cccc2c1C(NC1=Nc3ccc(NC(=O)CN4CCN(C)CC4)cc3CO1)CO2 (racemic) [Example 9, rac-N-[2-(4-Methoxy-2,3-dihydro-benzofuran-3-ylamino)-4H-benzo[d][1,3]oxazin-6-yl]-2-(4-methyl-piperazin-1-yl)-acetamide] |
| 12.5 | COc1cccc2c1C(NC1=Nc3ccc(Nc4nccc(C(F)(F)F)n4)cc3CO1)CO2 (racemic) [Example 60, rac-N^2-(4-Methoxy-2,3-dihydro-benzofuran-3-yl)-N^6-(4-trifluoromethyl-pyrimidin-2-yl)-4H-benzo[d][1,3]oxazine-2,6-diamine] |
| 8.28 | O=C(Nc1ccc2c(c1)COC(NC1CCOc3ccccc31)=N2)C1CC1 (racemic) [Example 90, rac-Cyclopropanecarboxylic acid [2-(chroman-4-ylamino)-4H-benzo[d][1,3]oxazin-6-yl]-amide] |
| 14.3 | CN1CCN(CC(=O)Nc2ccc3c(c2)COC(NC2CCOc4ccccc42)=N3)CC1 (racemic) [Example 120, rac-N-[2-(Chroman-4-ylamino)-4H-benzo[d][1,3]oxazin-6-yl]-2-(4-methyl-piperazin-1-yl)-acetamide] |
| 160 | COc1cccc2c1C(NC1=Nc3ccc(C#N)cc3CO1)CO2 (racemic) [Example 141, rac-2-(4-Methoxy-2,3-dihydro-benzofuran-3-ylamino)-4H-benzo[d][1,3]oxazine-6-carbonitrile] |
| 6.08 | COc1cccc2c1C(NC1=Nc3ccc(NC(=O)N(C)C4CCN(C(C)C)CC4)cc3CO1)CO2 (racemic) [Example 15, rac-1-(1-Isopropyl-piperidin-4-yl)-3-[2-(4-methoxy-2,3-dihydro-benzofuran-3-ylamino)-4H-benzo[d][1,3]oxazin-6-yl]-1-methyl-urea] |
| 1.26 | Nc1ccc2c(c1)COC(NC1CCc3cc(F)ccc31)=N2 (racemic) [Example 11, rac-N^2-(5-Fluoro-indan-1-yl)-4H-benzo[d][1,3]oxazine-2,6-diamine] |
| 40.7 | O=C(CN1CCOCC1)Nc1ccc2c(c1)COC(NC1COc3cc(F)ccc31)=N2 (racemic) [Example 45, rac-N-[2-(6-Fluoro-2,3-dihydro-benzofuran-3-ylamino)-4H-benzo[d][1,3]oxazin-6-yl]-2-morpholin-4-yl-acetamide] |
| 4.26 | COc1cccc2c1C(NC1=Nc3ccc(Nc4cccc(C(F)(F)F)n4)cc3CO1)CC2 (racemic) [Example 80, rac-N^2-(7-Methoxy-indan-1-yl)-N^6-(6-trifluoromethyl-pyridin-2-yl)-4H-benzo[d][1,3]oxazine-2,6-diamine] |
| 12.6 | COc1cccc2c1C(NC1=Nc3ccc(NS(=O)(=O)C4CC4)cc3CO1)CO2 (racemic) [Example 113, rac-Cyclopropanesulfonic acid [2-(4-methoxy-2,3-dihydro-benzofuran-3-ylamino)-4H-benzo[d][1,3]oxazin-6-yl]-amide] |
